The METLIN SMRT retention time set (Domingo-Almenara et al. 2019)

Test: gradient 5% acetonitrile 3 min, to 50% in 2 min, to 85% in 15 min, held 3 min, 100 µL/min
Conditions: column: Zorbax Extend-C18 2.1 x 50 mm; eluents: water / acetonitrile, 0.1% formic acid
How it was run: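 The system's dead and dwell volumes were 40 μL and 900 μL, with a Zorbax Extend-C18 column (2.1 × 50 mm, 1.8 μm) run at 100 μL/min in water and acetonitrile containing 0.1% formic acid each. Pure standards were analyzed in mixtures of ~100 molecules by HPLC–quadrupole time-of-flight mass spectrometry in positive and negative ionization mode. Retention time was assigned from computationally picked, manually inspected adduct peaks.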

SMILES | RP-LC retention time [s]
O=C(c1csc(N2CCN(c3ccccc3)CC2)n1)N1CCCCC1 | 1020
CC1=NN(CCC#N)C(=O)/C1=C\c1ccc(N(C)C)cc1 | 691
Cc1ccc(N2CCC(NC(=O)c3cccc(C#N)c3)C2=O)cc1C (stereo not given) | 847
CCOC(=O)C1CCCN(C(=O)CCCSc2ccc(NC(=O)C3CC3)nn2)C1 (stereo not given) | 726
CCNC(=O)N1CCCC(c2cccc(C(=O)NCCN3CCOCC3)c2)C1 (stereo not given) | 577
O=C(COc1ccccc1F)NCCS(=O)(=O)N1CCN(c2ncccn2)CC1 | 716
CC(C)n1c(=O)oc2cc(-c3noc(-c4ccc(F)cc4)n3)ccc21 | 1170
Cc1ccc(C)c(NC(=O)CCc2nc(N3CCOCC3)c3c(C)noc3n2)c1 | 763
Clc1ccc(-c2ccc(CNCc3ccc4c(c3)OCO4)o2)cc1 | 762
Cc1ccc(S(=O)(=O)N2CCOCC2)cc1-c1nnc(-c2ccc(F)cc2)o1 | 958
COc1ccc(-c2c(C)noc2NC(C)=O)cc1S(=O)(=O)NCCC1=CCCCC1 | 886
Cc1ccn2cc(C(=O)NCc3ccc(Cl)cc3)nc2c1 | 704
Cc1nc(C2CCOCC2)n(C2CCN(S(=O)(=O)c3cc(F)cc(F)c3)C2)n1 (stereo not given) | 740
CCc1nc(-c2csc(S(=O)(=O)N3CCCC(C(=O)Nc4ccc(Cl)cn4)C3)c2)no1 (stereo not given) | 1080
CC(C)CCNC(=O)C1(C)CN(S(=O)(=O)c2ccccc2)CC(=O)N1c1ccc(F)cc1F (stereo not given) | 972
Cc1ccc(S(=O)(=O)N2CCC(CN3CCCCCC3)CC2)cc1F | 686
Cc1ccc(NC(=O)N2CCC(N(C(=O)C3CC3)C3CCOCC3)CC2)c(C)c1 | 722
CCN1CCCC(C(=O)NCc2cccs2)(c2ccccc2)CC1 (stereo not given) | 643
CC(C)c1ccc(OCC(=O)Nc2nnc(C3CC(=O)N(c4ccc(F)cc4)C3)o2)cc1 (stereo not given) | 904
CCC(=O)N(CC)c1nc(-c2ccc(Br)cc2)cs1 | 1250
O=C(Nc1cccnc1)C1CCN(S(=O)(=O)Cc2ccccc2)CC1 | 626
O=C(NCc1ccc2c(c1)OCO2)c1ccc2ccnc(N3CCN(C(=O)c4ccco4)CC3)c2c1 | 679

SMILES | RP-LC retention time [s]
CCc1nc2cc(-c3noc(Cc4ccc(F)cc4)n3)ccc2o1 | 1070
CC12CC(NC(=O)N1c1ccc(C(=O)N3CCN(c4ccccn4)CC3)cc1)c1ccccc1O2 (stereo not given) | 599
CCn1cc(-c2nc(CC(=O)Nc3cc(C)ccc3F)cs2)c2cccnc21 | 1040
O=C(Nc1ccc(-c2cn3cccnc3n2)cc1)c1cccc(Br)c1 | 702
Cc1ccc(N2CCC(NC(=O)Nc3cccc(Cl)c3C)C2=O)cc1 (stereo not given) | 909
O=S(=O)(c1ccccc1)N1CCOc2ccccc21 | 974
CCCn1c(=O)sc2cc(S(=O)(=O)N3CCC(C(=O)NCc4cccc(C)c4)CC3)ccc21 | 975
Cc1ccc(Nc2nc(-c3ccncc3)nc3ccccc23)cc1 | 797
CCn1cc(-c2ccc(Cl)cc2)cc1C(=O)N(C)C | 957
O=C(NCC1CCOCC1)c1ccc2ccccc2n1 | 782
COc1ccc(S(=O)(=O)N2CCC(c3nc(C(=O)N(C)C)c(C)o3)CC2)cc1Cl | 806
COCCNC(=O)C1CCN(c2nc3ccc(-c4cccc(OC)c4)nc3s2)CC1 | 804
COc1cc([C@@H]2c3cc4c(cc3[C@@H](O[C@@H]3O[C@@H]5COC(c6cccs6)O[C@H]5[C@H](O)[C@H]3O)[C@H]3COC(=O)[C@H]23)OCO4)cc(OC)c1O (stereo not given in full) | 780
Cc1nnc(N2CCC(C(=O)N3CCCC3)CC2)c2nn(-c3ccccc3)c(C)c12 | 658
CC(C)CN1C(=O)CCc2cc(NS(=O)(=O)c3cccc(Cl)c3)ccc21 | 932
O=C(c1ccco1)N1CCN(C(=O)C2CN(S(=O)(=O)C3CC3)CC23CCCCC3)CC1 (stereo not given) | 758
Cc1sc(-c2noc(C3CC3)n2)cc1S(=O)(=O)N1CCC(C(=O)NC2CCC(C)CC2)CC1 (stereo not given) | 1120
CCOC(=O)c1[nH]c(C)c(CCC(=O)N2CCC(C(=O)NCc3ccccc3OC)CC2)c1C | 800
CCc1nc2c(NC(=O)Nc3ccc4c(c3)CCC4)cccn2n1 | 957
CC(C)C(=O)Nc1ccc(C(=O)NCCNS(=O)(=O)c2ccc3c(c2)OCCO3)cc1 | 661
O=C(Nc1cccc(Br)c1)N1CCc2nc[nH]c2C1 | 614
COc1cccc(C(=O)N2CCC3(CC2)NC(=O)c2cc(C)ccc2N3C)c1 | 752

SMILES | RP-LC retention time [s]
Cc1cc(C)nc(SCCCNC(=O)Nc2cc(C)on2)n1 | 663
CCCN1CCN(C(=O)C2CCCN(c3nnc4ccc(C(F)(F)F)cn34)C2)CC1 (stereo not given) | 510
CN1C[C@@H](CO)C=C2c3cccc4[nH]cc(c34)C[C@@H]21 | 607
Cc1nc2ccn(Cc3cccs3)c(=O)c2cc1C(=O)N1CCOCC1 | 648
COC(=O)c1c(-c2ccccc2)noc1NCc1ccccc1OC | 1100
O=C1Cc2cc(NC(=O)NCCCc3ccccc3)ccc2N1 | 657
Cn1cc(S(=O)(=O)NCc2cccs2)c(=O)n(C)c1=O | 635
COc1ccc(S(=O)(=O)NC2CCN(C(=O)Nc3ccc(F)c(Cl)c3)CC2)cc1 | 900
O=C(Nc1ccccc1)N1C[C@@H]2C(=O)N(CCc3ccccc3)C(=O)[C@@H]2C1 | 789
O=C(CCc1c(-c2ccc(F)cc2)nc2ccccn12)Nc1cccc(F)c1 | 676
COc1ccccc1CCNC(=O)CSc1ccc(-c2cccs2)nn1 | 802
Cc1ccc(NC(=O)N2CCCC(Cn3c(C4CC4)nc4cccnc43)C2)cc1C (stereo not given) | 694
COc1ccc(NC(=O)Cn2ccc3ccn(Cc4ccccc4)c3c2=O)cc1OC | 859
N#Cc1cccc(NC(=O)Cn2cccc2-c2nc(-c3ccc4c(c3)OCO4)no2)c1 | 924
Cc1cccc(-c2nc(Cn3nnc(C(=O)NCc4ccc(F)c(Cl)c4)c3C)c(C)o2)c1 | 1180
COc1ccc(-n2nc3c(N4CCCC(C(=O)NCc5ccccn5)C4)nnc(C)c3c2C)cc1 (stereo not given) | 591
Cc1ccc(NC(=O)Cn2cnc3nc(N4CCCC(C(=O)NC(C)C)C4)sc3c2=O)cc1 (stereo not given) | 711
Cc1nc(C)c(C(=O)Nc2ccc(F)cc2F)s1 | 755
COc1ccc(N2CCN(C(=O)Cn3nc4nc(N5CCCC5)ccn4c3=O)CC2)cc1 | 639
CCc1nc(-c2csc(S(=O)(=O)N3CCCC(C(=O)Nc4ccc(C)cc4Cl)C3)c2)no1 (stereo not given) | 1100
O=C(NCc1cscn1)C1CCN(S(=O)(=O)c2ccc(Br)s2)CC1 | 740
